We go through 9 molecules from publication PMC11939259, “Antiparasitic and Antifungal Activities of Cetyl-Maritima, a New N-Cetyl-Modified Maritima Derivative” (Antibiotics, 2025).

In assay [1] the test system is M. mycetomatis fungal strain MM55. As to the kind of experiment: M. mycetomatis MM55 in vitro susceptibility, MTS metabolic activity. Type of assay: cell-based, Madurella mycetomatis. To be noted: for Metabolic activity upon treatment at 25 μM / Metabolic activity upon treatment at 100 μM: ± SD.
Experimental: The M. mycetomatis MM55 isolate obtained from a patient and identified and maintained in the Erasmus Medical Centre, Rotterdam, The Netherlands, was applied for the investigation of the in vitro susceptibility of the test compounds as reported previously [94]. In short, the fungal isolate was cultured on Sabouraud agar for 2 weeks at 37 °C, after which the mycelium was transferred in colorless RPMI 1640 medium supplemented with L-glutamine (0.3 g/L; Capricorn-Scientific, Ebsdorfergrund, Germany), morpholinepropanesulfonic acid (MOPS, 20 mM, Sigma, St. Louis, MO, USA), and chloramphenicol (100 mg/L, Oxoid, Basingstroke, UK). The mycelium was sonicated for 10 s at 10 μm with a probe sonicator (Soniprep, Beun de Ronde, Abcoude, The Netherlands) to obtain a hyphal suspension, after which the hyphal suspension was cultured for another week at 37 °C. The suspension was then collected by centrifugation (5 min, 3400 rpm) and washed with PBS followed by the addition of fresh RPMI 1640 medium, after which the mycelia was again sonicated for 10 s at 10 μm with a probe sonicator. The hyphal suspension was diluted to a transmission of 70% at 660 nm (Novaspec II; Pharmacia Biotech, Uppsala, Sweden). Then, 100 μL of the suspension was added to each well of a 96-wells plate (Costar 3799, Fisher Scientific, Breda, The Netherlands) that contained 1 μL of each compound sample. Compounds were initially evaluated at concentrations of 100 μM and 25 μM.
For the final metabolic activity evaluation, a viability dye named MTS, 3-(4,5-dimethylthiazol-2-yl)-5-(3-carboxymethoxyphenyl)-2-(4-sulfophenyl)-2H-tetrazolium salt, was applied as described in a previous study [64]. The following formula was used: Percentage metabolic activity=Absorbance test490nm−Absorbance NC490nm/Absorbance GC490nm−Absorbance NC490nm∗100
The growth control (GC) refers to the fungal isolate only and indicates 100% metabolic activity.
The test system of assay [2] is T. gondii RH strain tachyzoites. Briefly: T. gondii growth inhibition in infected Vero cells (infection index). Format: cell-based, Toxoplasma gondii. Here is the method: Cells of the Vero cell line (ATCC® CCL81™, Manassas, VA, USA) were used to cultivate T. gondii RH strain tachyzoites. The effects of test compounds on T. gondii growth were investigated according to previously published methods. Vero cells were maintained in complete RPMI 1640 medium supplemented with 10% heat-inactivated FBS, under a humidified atmosphere containing 5% CO2 at 37 °C. The cells were seeded in 96-well plates at a density of 5 × 10^3 cells/well (see also Figure S7) in 200 μL of RPMI 1640 medium and incubated at 37 °C with 5% CO2 for 24 h. Following incubation, the medium was discarded, and cells were washed with PBS. Subsequently, RPMI 1640 medium containing 2% FBS and T. gondii tachyzoites was added at a ratio of 5 parasite cells to 1 Vero cell. After 5 h incubation at 37 °C and 5% CO2, cells were washed with PBS and processed as outlined below.
Control: RPMI 1640 medium with 0.8% DMSO.
Experimental: RPMI 1640 medium containing test compounds (dissolved in DMSO) at concentrations of 90, 30, 10, 3.3, 1.1, 0.37, and 0.12 μg/mL. Atovaquone (ATO) was used as positive control.
Cells were incubated at 37 °C and 5% CO2 for 72 h, washed with PBS, fixed in 10% formalin, and stained with 1% toluidine blue. The infection index, defined as the number of infected cells out of 200 examined cells, was determined using an inverted photomicroscope.
The percentage of inhibition was calculated using the following equation:Inhibition (%) = [(I Control − I Experimental)/I Control] × 100 where “I Control” is the infection index of untreated cells, and “I Experimental” is the infection index of cells treated with test compounds.

A further assay deals with Vero monkey kidney cells. Briefly: Vero cell cytotoxicity (MTT). To be noted: Primates, 72 h, ± S.D. Format: cell-based. Here is the method: MTT assays were performed to assess the cytotoxicity of the test compounds. Vero cells and isolated macrophages were seeded in 96-well plates at a density of 5 × 10^3 cells per well in 200 μL of RPMI 1640 medium with 10% FBS and incubated at 37 °C with 5% CO2 for 24 h. After incubation, cells were washed with PBS and treated with test compounds at varying concentrations (90, 30, 10, 3.3, 1.1, 0.37, and 0.12 μg/mL) in 10% FBS medium for 72 h. Negative control wells contained cells treated with medium in 2% FBS without test compounds (see also raw data in Table S5). After treatment, the supernatant was removed, and 50 μL of RPMI 1640 medium containing 14 μL of MTT solution (5 mg/mL) was added. The cells were incubated for an additional 4 h. Following incubation, the supernatant was discarded, and 200 μL of DMSO was added to dissolve the formazan crystals. The absorbance was measured at 540 nm using a FLUOstar OPTIMA spectrophotometer (BMG LABTECH, Ortenberg, Germany). […] IC50 values were determined from three independent experiments.

In assay [3] the test system is L. major intramacrophageal amastigotes. As to the kind of experiment: L. major intramacrophageal amastigote assay (Giemsa, infected macrophages). Format: cell-based, Leishmania major. Particulars: for IC50: Leishmania major, Macrophage, 72 h, read-out: IC50 Amastigotes. On the procedure: Promastigotes of L. major were isolated from a patient in February 2016 and cultured at 26 °C in Schneider’s Drosophila medium (Invitrogen, Carlsbad, CA, USA) supplemented with 10% heat-inactivated fetal bovine serum (FBS, Invitrogen, USA) and antibiotics. Cultures were maintained in tissue culture flasks with weekly transfers. The promastigotes were cryopreserved in liquid N2 at a concentration of 3 × 10^6 parasites/mL. Virulent L. major parasites were maintained by serial passage in BALB/c mice through hind footpad injections of 1 × 10^6 stationary-phase promastigotes, and amastigotes were isolated after 7 weeks. Isolated amastigotes were converted to promastigotes by culturing at 26 °C in Schneider’s medium with antibiotics and 10% FBS. Amastigote-derived promastigotes, with fewer than five in vitro passages, were used for infection experiments.
(§1) For amastigote activity assays, peritoneal macrophages were collected from BALB/c mice (7 weeks old) by aspiration. Cells (5 × 10^4 cells/well) were seeded into 96-well plates (see also Figure S7) with phenol red-free RPMI 1640 medium containing 10% FBS and incubated at 37 °C with 5% CO2 for 4 h to allow adhesion. After discarding the medium and washing with PBS, 200 μL of L. major promastigotes in RPMI 1640 medium (10 promastigotes per macrophage) were added. Plates were incubated at 37 °C with 5% CO2 for 24 h to promote macrophage infection and amastigote differentiation. Unattached promastigotes were removed by washing with PBS (three times), and fresh phenol red-free RPMI 1640 medium containing test compounds (90, 30, 10, 3.3, 1.1, 0.37, and 0.12 μg/mL) was added. Cultures were incubated at 37 °C in 5% CO2 for 72 h. […] After incubation, cells were fixed and Giemsa-stained, and the percentage of infected macrophages was determined microscopically. IC50 values were calculated from three independent experiments. The isolation of parasites and macrophages was performed strictly following the rules and guidelines of the responsible committee of research ethics, Deanship of Scientific Research, Qassim University, Kingdom of Saudi Arabia (permission number 20-03-20).

Another assay has as its system L. major promastigotes. As to the kind of experiment: L. major promastigote viability (MTT). Particulars: Leishmania major, 72 h, read-out: IC50 Promastigotes. Format: cell-based.
Another assay relates to peritoneal macrophages. As to the kind of experiment: Macrophage cytotoxicity (MTT). Format: cell-based, BALB/c mice. Particulars: Mus musculus, 72 h, read-out: IC50 Macrophages. On the procedure:
as §1, with “The isolation of parasites and macrophages was performed strictly following the rules and guidelines of the responsible committee of research ethics, Deanship of Scientific Research, Qassim University, Kingdom of Saudi Arabia (permission number 20-03-20).” left out
MTT assays were performed to assess the cytotoxicity of the test compounds. […] The absorbance was measured at 540 nm using a FLUOstar OPTIMA spectrophotometer (BMG LABTECH, Ortenberg, Germany). […] IC50 values were determined from three independent experiments.

Another assay relates to eumycetoma. The arrangement: method as in PMID 38690871, PMID 38935904, PMID 39098321. Particulars: eumycetoma patients, conditions of a clinical trial, combined with surgery; cited from earlier work.
For assay [4], the system named is M. mycetomatis fungal strain MM55. More on the design: method as in PMID 37067830. To be noted: positive control, cited from earlier work.
[5] abbreviates: Madurella mycetomatis, read-out: IC50.

Values joined by “and” are separate entries in the source; they are usually repeats but may differ in a detail not shown here. Equal entries are not always repeated. Where two headings read alike, the source gives them in different places.

The IC50 is the point on the concentration scale where inhibition reaches its midpoint. As to `CCCCCCCCCCCCCCCC[n+]1ccccc1C` [C2PicBr], in assay [1], the “Metabolic activity upon treatment at 25 μM” value was 8.7 ± 0.8% and the “Metabolic activity upon treatment at 100 μM” value stood at 4.5 ± 0.8%. For the same molecule, the IC50 in assay [1] (setting [5]) was 16.1 µM.
Turning to `CC(C)=CCCC(C)=CCCc1ccncc1` [Maritima, 4-(4,8-dimethyl-3,7-nonadienyl)-pyridine], the IC50 was greater than 314 µM in assay [2] (Toxoplasma gondii, Vero; 72 h; ± S.D); greater than 314 µM in the assay on Vero monkey kidney cells; greater than 314 µM in assay [3] (intramacrophageal, ± S.D); greater than 314 µM with L. major promastigotes (± S.D); greater than 314 µM in the assay with peritoneal macrophages (± S.D). In assay [1], the “Metabolic activity upon treatment at 25 μM” value was 54% and 54.3 ± 7.5%. For the same molecule, the “Metabolic activity upon treatment at 100 μM” value in assay [1] was 13.8 ± 33.8%.
On to `CCC(C)n1ncn(-c2ccc(N3CCN(c4ccc(OCC5COC(Cn6cncn6)(c6ccc(Cl)cc6Cl)O5)cc4)CC3)cc2)c1=O` (stereo not drawn) [Itraconazole, itraconazole], for which the cure rate with eumycetoma is given as greater than 70%. Further, the “Metabolic activity upon treatment at 25 μM” value in assay [4] (25 μM, ± SD) is on record as −1.04 ± 2.37%. Also, the “Metabolic activity upon treatment at 100 μM” value in assay [4] (100 μM, ± SD) is given as 2.34 ± 4.49%. Also, the IC50 in assay [4] was 0.09 µM.
Take `CCCCCCCCCCCCCCCC[n+]1ccc(C)cc1` [C4PicBr]: in assay [1], the “Metabolic activity upon treatment at 25 μM” value was determined as 18.4 ± 17.7% and the “Metabolic activity upon treatment at 100 μM” value was 5.0 ± 0.8%. Also, the IC50 in assay [1] (setting [5]) amounted to 16.1 µM.
The like results for `CCCCCCCCCCCCCCCC[n+]1ccc(/C=C/c2cc(OC)c(OC)c(OC)c2)cc1` [TMP-16] were, in that order, 13.3 ± 1.5%, 19.1 ± 1.1% and 18.2 µM.
Take `CCCCCCCCCCCCCCCC[n+]1ccc(/C=C/c2ccc(N(C)C)cc2)cc1` [DAMS-16]: in assay [1], the “Metabolic activity upon treatment at 25 μM” value was 56.9 ± 69.3% and the “Metabolic activity upon treatment at 100 μM” value is given as 25.4 ± 4.3%. In addition, the IC50 in assay [1] (setting [5]) is 16 µM.
As to “Dichlorido(η^6-p-cymene)[4-(4,8-dimethyl-3,7-nonadienyl)-pyridine]ruthenium(II) [Ru-Maritima]”, in assay [1], the “Metabolic activity upon treatment at 25 μM” value was 155% and 155.7 ± 22.2%; the “Metabolic activity upon treatment at 100 μM” value was −6.6 ± 12.2%.
In the case of `CCCCCCCCCCCCCCCC[n+]1ccc(CCC=C(C)CCC=C(C)C)cc1.[Br-]` [Cetyl-Maritima, 1-Hexadecyl-4-(4,8-dimethyl-3,7-nonadienyl)-pyridinium Bromide], the “SI selectivity index (Vero/T. gondii)” value in assay [2] is given as 1.3. In addition, the IC50 in assay [2] (72 h; ± S.D) is 8.6 ± 1.2 µM; in assay [2] (Toxoplasma gondii, Vero, 72 h; ± S.D), roughly 8 µM; in the assay on Vero monkey kidney cells, 11.4 ± 1.3 µM; in assay [3] it was 0.6 ± 0.2 µM; with L. major promastigotes, 1.5 ± 0.2 µM; in assay [1], 8.2 µM. The IC50 in assay [1] (Madurella mycetomatis) is roughly 8 µM; with peritoneal macrophages it was 4.3 ± 0.5 µM. Also, the “SI selectivity index (macrophages/L. major amastigotes)” value in assay [3] is listed as 7.2. The “SI selectivity index, Vero kidney cells vs L. major amastigotes” value in assay [3] is listed as 19. Also, the “Metabolic activity upon treatment at 25 μM” value in assay [1] came to 12.2 ± 6.9%. Further, in assay [1], the “Metabolic activity upon treatment at 100 μM” value is 13.1 ± 2.0%.
For the molecule `C[C@@H](c1nc(-c2ccc(C#N)cc2)cs1)[C@@](Cn1cncn1)(OCOP(=O)(O)O)c1ccc(F)cc1F` [fosravuconazole], the cure rate with eumycetoma is greater than 70%.
